Data published in US8729109B2, “3-(4-(5-phenyl-1 ,2,4-oxadiazol-3-yl)phenoxy)propan-2-ol derivatives as sphingosine-1phosphate receptors modulators” (Allergan, Inc., priority 2011, dated 2014).
pEC50: −log10 of the molar value.

Tests used:
[1] = test system: lymphocytes in the blood; assay: Lymphopenia assay in mice; assay type: in vivo; settings: female C57BL6 mice, 10 mg/Kg subcutaneously, after 96 h of drug application (FIG. 1)
Procedure: Lymphopenia Assay in Mice
Compound 1, 5-{3-[3-chloro-4-(2,3-dihydroxypropoxy)phenyl]-1,2,4-oxadiazol-5-yl}-2-isopropoxybenzonitrile, was prepared in a solution containing 3% (w/v) 2-hydroxy propyl β-cyclodextrin (HPBCD) and 1% DMSO to a final concentration of 1 mg/ml, and subcutaneously injected to female C57BL6 mice (CHARLES RIVERS) weighing 20-25 g at the dose of 10 mg/Kg. Blood samples were obtained by puncturing the submandibular skin with a Goldenrod animal lancet at 24, 48, 72, and 96 hrs post drug application. Blood was collected into microvettes (SARSTEDT) containing EDTA tripotassium salt. Lymphocytes in blood samples were counted using a HEMAVET Multispecies Hematology System, HEMAVET HV950FS (Drew Scientific Inc.). (Hale, J. et al Bioorg. & Med. Chem. Lett. 14 (2004) 3351).The results are presented in FIG. 1: the number of lymphocytes in the blood was reduced by Compound 1 after 96 h of drug application.

[2] = target: T1, human S1P1 receptor (Homo sapiens, UniProt P21453); assay: GTP γ35S binding assay, S1P1 activity; assay type: biochemical; settings: membranes of cells stably expressing S1P1 receptor, agonist potency
T1 construct: expressed in transfected cells; membranes used
T1 sequence (P21453 whole entry): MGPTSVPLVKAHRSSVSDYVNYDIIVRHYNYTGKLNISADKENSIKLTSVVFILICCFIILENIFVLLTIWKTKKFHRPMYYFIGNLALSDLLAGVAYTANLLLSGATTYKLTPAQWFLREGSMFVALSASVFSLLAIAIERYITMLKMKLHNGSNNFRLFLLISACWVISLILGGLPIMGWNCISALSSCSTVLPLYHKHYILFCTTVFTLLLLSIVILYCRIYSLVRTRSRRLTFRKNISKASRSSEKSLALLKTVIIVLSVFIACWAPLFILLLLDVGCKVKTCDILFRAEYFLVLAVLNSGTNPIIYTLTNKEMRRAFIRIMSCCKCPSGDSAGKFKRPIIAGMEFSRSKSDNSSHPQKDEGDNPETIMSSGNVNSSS
Procedure: Compounds were synthesized and tested for S1P1 activity using the GTP γ^35S binding assay. These compounds may be assessed for their ability to activate or block activation of the human S1P1 receptor in cells stably expressing the S1P1 receptor.
GTP γ^35S binding was measured in the medium containing (mM) HEPES 25, pH 7.4, MgCl2 10, NaCl 100, dithitothreitol 0.5, digitonin 0.003%, 0.2 nM GTP γ^35S, and 5 μg membrane protein in a volume of 150 μl. Test compounds were included in the concentration range from 0.08 to 5,000 nM unless indicated otherwise. Membranes were incubated with 100 μM 5′-adenylylimmidodiphosphate for 30 min, and subsequently with 10 μM GDP for 10 min on ice. Drug solutions and membrane were mixed, and then reactions were initiated by adding GTP γ^35S and continued for 30 min at 25° C. Reaction mixtures were filtered over Whatman GF/B filters under vacuum, and washed three times with 3 mL of ice-cold buffer (HEPES 25, pH 7.4, MgCl2 10 and NaCl 100). Filters were dried and mixed with scintillant, and counted for ^35S activity using a β-counter. Agonist-induced GTP γ^35S binding was obtained by subtracting that in the absence of agonist. Binding data were analyzed using a non-linear regression method. In case of antagonist assay, the reaction mixture contained 10 nM […] in the presence of test antagonist at concentrations ranging from 0.08 to 5000 nM.

## CC(C)Oc1ccc(-c2nc(-c3ccc(OCC(O)CO)c(Cl)c3)no2)cc1C#N (centres unmarked) [Compound 1, 5-{3-[3-chloro-4-(2,3-dihydroxypropoxy)phenyl]-1,2,4-oxadiazol-5-yl}-2-isopropoxybenzonitrile]
[1]
  number of lymphocytes in the blood: reduced
[2]
  pEC50: 7.99

## COP(=O)(OC)OCC(O)COc1ccc(-c2noc(-c3ccc(OC(C)C)c(C#N)c3)n2)cc1Cl (centres unmarked) [Compound 2, 3-{2-chloro-4-[5-(3-cyano-4-isopropoxyphenyl)-1,2,4-oxadiazol-3-yl]phenoxy}-2-hydroxypropyl dimethyl phosphate]
[2]
  pEC50: 8.54

## COP(=O)(O)OCC(O)COc1ccc(-c2noc(-c3ccc(OC(C)C)c(C#N)c3)n2)cc1Cl (centres unmarked) [Compound 3, 3-{2-chloro-4-[5-(3-cyano-4-isopropoxyphenyl)-1,2,4-oxadiazol-3-yl]phenoxy}-2-hydroxypropyl methyl hydrogen phosphate]
[2]
  pEC50: 7.69

## CC(C)Oc1ccc(-c2nc(-c3ccc(OCC(O)COP(=O)(O)O)c(Cl)c3)no2)cc1C#N (centres unmarked) [Compound 4, 3-{2-chloro-4-[5-(3-cyano-4-isopropoxyphenyl)-1,2,4-oxadiazol-3-yl]phenoxy}-2-hydroxypropyl dihydrogen phosphate]
[2]
  pEC50: 5.34
